The record followed here is patent publication US20060135569A1, “Use of benzisoselenazolone compounds against ischemic myocardial damage” (priority 2002, published 2006).

Marks after values point to notes of the source that are not given here.

Experiment [1] addresses T1, Na^+/Ca^2+ exchanger (Cavia porcellus, UniProt P48766).
T1 construct: endogenous in cells; host or cells: freshly isolated guinea pig ventricular myocytes
Description: Na^+/Ca^2+ exchange current (INa—Ca), whole-cell patch clamp, intracellular Na^+ overload cell model. Type of experiment: cell-based, guinea pig. Also on record: Inhibitory rate of outward INa—Ca (%) / Inhibitory rate of inward INa—Ca (%): concentration or dose not given beside the values. Particulars: for inhibitory ratio on INa—Ca at −80 mV: inward current; for inhibitory ratio on INa—Ca at +50 mV: outward current; for effective concentration (significant inhibitory effect on reverse mode Na^+/Ca^2+ exchange): intracellular Na^+ overload; for selectivity of inhibition of outward versus inward INa—Ca: biphasic ion conditioning. The text has this: 1. Establishment of Assaying Method for Biphasical Current Detection in Na^+/Ca^2+ Exchange System
Since the reverse mode of Na^+/Ca^2+ exchange process is one of the main mechanisms involving in ischemia/reperfusion insult, it is of great importance to establish cell model represented reverse mode Na^+/Ca^2+ exchange process for the development of drugs against ischemic injury. Therefore, we successfully established cell model of reverse mode Na^+/Ca^2+ exchange system by intracellular Na^+ dialysis technique, and recorded Na^+/Ca^2+ exchange currents by patch clamp experiment.
Internal solution contained certain concentration of NaCl was filled to the microcatheter, and ion exchange process between the cellular and internal solutions was conducted after whole cell currents were recorded by patch clamp. Na^+ contained in the internal solution was dialyzed into the cell; result in the high intracellular Na^+ concentration. After that, the cell was champed at a holding potential of −40 mV, then depolarized to +60 mV and followed by a conversely declining ramp stimuli at a speed of 80 mV·s^−1 and 2 s conditioning pulse, then repolarized to −100 mV with a frequency of 0.05 Hz. Under the stimulation protocol, current from outward to the inward direction was recorded by perfusing modified biphasical Tyrode solution (in which the outward and inward currents can be recorded simultaneously) with the addition of 1 mmol·L^−1 of BaCl2 and 2 mmol·L^−1 of CsCl to block K^+ channels, 1 μmol·L^−1 of verapamil to block L-type Ca^2+ channels, and 20 μmol·L^−1 of ouabain to block Na^+/K^+ ATPase, and 20 mmol·L^−1 of TEA to block potassium channels. The recorded inward currents were presented in a linear manner owing to the blockade of other time-dependent currents. With the increase of intracellular Na^+ level and prolongation of time, the reverse mode of Na^+/Ca^2+ exchange process was activated. […] Under such experimental conditioning, the maximum reverse mode current was recorded 3 min after cell crushed. No significant “run-down” was observed within the record period of 8 minutes. The inward and outward current were inhibited by 5 mmol·L^−1 of Ni^2+ treatment, and the experiment result in two current-voltage curves in the absence or presence of Ni^2+. The Ni^2+ sensitive current, also called electrophysiological Na^+/Ca^2+ exchange current (INa·Ca), was the minus result of two current-voltage curves. The reverse mode potential of INa—Ca was about −20 mV
Male guinea pigs weighting 250˜280 g provided by the Animal Center of the Chinese Academy of Medical Sciences were hammered and sacrificed. The chest was opened and the heart was removed quickly. Fatty tissue and pericardium were removed in a Ca^2+-free solution at 4° C., and heart was sequentially mounted on a Langendorff apparatus. First, the heart was perfused conversely via the aorta for 6 min with Ca^2+-free solution in order to wash out residual blood, then the heart expands and the color of it turns to pink. Then the heart was perfused with Ca^2+-free solution containing 0.1 mg/ml of pronase E, 0.5 mg/ml defatted bovine serum albumin (BSA) and 150 μM Ca^2+ for 2˜3 min, until the heart expanded and became soft. The atrium was removed, and the digested heart was minced with scissors, stirred in a beaker at 37° C. for 5˜10 min. The supernatant was diluted with Ca^2+-free solution containing 0.5 mg/ml BSA and 1.8 mM Ca^2+. The supernatant was placed at room temperature (20˜24° C.) for 1 hr and then subjected to the experiment. During the whole perfusion period, pressure was kept at 70 cmH2O and the temperature of solution was kept at 37° C. with continuously gassed with 95% O2 and 5% CO2.
Rod-shaped cells with clear striations and intact membrane were used. […]
On the technique in general: In patch-clamp work, channel activity is measured electrically.

Experiment [2] has as its system isolated rat hearts subjected to ischemia-reperfusion (I/R). Description: Isolated heart subjected to ischemia/reperfusion injury (arrhythmia). The settings on record: 10^−6 M; isolated heart ischemia/reperfusion. Here is the method: Based on the pre-electrophysiological cell model screening, we have compared the inhibition ratios of the outward current by reverse-transportation of Na^+/Ca^2+ exchange, and further in vitro tests on isolated rat hearts subjected to ischemia-reperfusion (I/R) were conducted. Prolongation of ventricular arrhythmic, incidence rate of ventricular extrasystole, ventricular tachycardia/ventricular fibrillation (VT/VF) were recorded to evaluate the protective actions of drugs on myocardial injury.
On the basis of above screening results obtained from electrophysiological studies, and the result from comparative study on the research of the inhibitory effect of compounds on reverse mode Na^+/Ca^2+ exchange process, 7 effective compounds were subjected to in vitro study. Among which, IMM-313, IMM-004 and IMM-132 have structures containing chlorine; IMM-127, IMM-128 and IMM-129 have structures containing fluorine; and IMM-065 has a structure containing OH. The experiment performed in the isolated heart subjected to ischemia/reprefusion insult. Prolongation of ventricular arrhythmic, incidence of ventricular extrasystole, ventricular tachycardia/ventricular fibrillation (VT/VF) were recorded in order to evaluate the protective actions of drugs on myocardial injury.

The subject of experiment [3] is arrhythmia caused by ischemia/reperfusion insults in anaesthetic rats. Description: Ischemia/reperfusion arrhythmia in anaesthetic rats, intravenous injection. The settings on record: rats. Type of experiment: in vivo, rat. The text has this: (1) Protective Effects of the Tested Compounds on Myocardial Insults in Rats after Intravenously Injection
Arrhythmic potency induced by myocardial insults was used to assess the potential protective effect of the compounds.

Setting [4] is: screening of 22 candidate compounds.
Setting [5] is: Example 1 table, myocardial cell.
Where [6] appears, read: 0.3 mg/Kg intravenous (femoral vein).

For the compound `O=c1c2ccccc2[se]n1Cc1ccccn1` [IMM-058, 2-(2-pyridylmethyl)-1,2-benz-isoselenazol-3(2H)-one], the “Inhibitory rate of outward INa—Ca (%)” value in experiment [1] (setting [4]) was determined as 3%.
With `O=c1c2ccccc2[se]n1/C=C/C1N=CCN1` (stereo not drawn) [IMM-002, 2-[(3,4-dihydroimidazol-2-yl)-2-ethenyl]-1,2-benz-isoselenazol-3(2H)-one], in experiment [1] (setting [4]), the “Inhibitory rate of inward INa—Ca (%)” value is listed as 34% and the “Inhibitory rate of outward INa—Ca (%)” value is listed as 32* %.
For `O=c1c2cc(Cl)ccc2[se]n1-c1cccnc1` [IMM-125, 5-chloro-2-(3-pyridyl)-1,2-benz-isoselenazol-3(2H)-one], in that order: 14% and 35%.
In the same order, the values of `O=c1c2cc(O)ccc2[se]n1-c1ccccc1` [IMM-164, 5-hydroxy-2-phenyl-1,2-benz-isoselenazol-3(2H)-one] are 22% and 8%.
For `CCCCC1OC(=O)c2cccc(-n3[se]c4ccccc4c3=O)c21` (stereo not drawn) [IMM-623, 2-[4-(7-n-butyl-benzo(1,2-c-di-hydrofuran-2-one))]-1,2-benz-isoselenazol-3(2H)-one], in that order: 15% and 11%.
On to `O=c1c2ccc(Cl)cc2[se]n1-c1cccnc1` [IMM-141, 6-chloro-2-(3-pyridyl)-1,2-benz-isoselenazol-3(2H)-one], for which the “Inhibitory rate of inward INa—Ca (%)” value in experiment [1] (setting [4]) was found to be 2%.
On to `O=c1c2ccccc2[se]n1-c1cccnc1` [IMM-030, 2-(3-pyridyl)-1,2-benzisoselenazol-3(2H)-one], for which, in experiment [1] (setting [4]), the “Inhibitory rate of inward INa—Ca (%)” value is 17% and the “Inhibitory rate of outward INa—Ca (%)” value came out at 12%.
`O=c1c2cc(Cl)ccc2[se]n1-c1ccccc1` [IMM-131, 5-chloro-2-phenyl-1,2-benz-isoselenazol-3(2H)-one]: in experiment [1] (setting [4]), the “Inhibitory rate of inward INa—Ca (%)” value was found to be 15% and the “Inhibitory rate of outward INa—Ca (%)” value is reported as 22%.
Take `O=c1c2cc(Cl)ccc2[se]n1-c1ccncc1` [IMM-132, 5-chloro-2-(4-pyridyl)-1,2-benz-isoselenazol-3(2H)-one]: in experiment [1] (setting [5]), the “Inhibitory rate of inward INa—Ca (%)” value came to 14% and the “Inhibitory rate of outward INa—Ca (%)” value turned out to be 44%. Also, in experiment [1] (setting [4]), the “Inhibitory rate of inward INa—Ca (%)” value was 14% and the “Inhibitory rate of outward INa—Ca (%)” value is on record as 44* %. Moreover, in experiment [2], the “AAT: arrhythmic occurrence time, Time” value was determined as 29.13 ± 0.69 min; the “VF (ventricular fibrillation) Incidence rate (%)” value was 85.7%; the “VPS (ventricular premature beats) Incidence rate (%)” value was 28.6%; the “VT (ventricular tachycardia) Incidence rate (%)” value is 85.7%.
As to `O=c1c2cc(F)ccc2[se]n1-c1ccncc1` [IMM-129, 5-fluoro-2-(4-pyridyl)-1,2-benz-isoselenazol-3(2H)-one], in experiment [1] (setting [5]), the “Inhibitory rate of inward INa—Ca (%)” value amounted to 57% and the “Inhibitory rate of outward INa—Ca (%)” value is recorded as 59%. In addition, in experiment [1] (setting [4]), the “Inhibitory rate of inward INa—Ca (%)” value is 57* % and the “Inhibitory rate of outward INa—Ca (%)” value is 59* %. Further, in experiment [2], the “AAT: arrhythmic occurrence time, Time” value is reported as 23.67 ± 3.87 min; the “VF (ventricular fibrillation) Incidence rate (%)” value is reported as 63%; the “VPS (ventricular premature beats) Incidence rate (%)” value is 37.5%; the “VT (ventricular tachycardia) Incidence rate (%)” value is given as 75%.
As to `O=c1c2cc(O)ccc2[se]n1-c1ccccn1` [IMM-163, 5-hydroxy-2-(2pyridyl)-1,2-benz-isoselenazol-3(2H)-one], in experiment [1] (setting [4]), the “Inhibitory rate of inward INa—Ca (%)” value is 19% and the “Inhibitory rate of outward INa—Ca (%)” value is reported as 14%.
As to `N=C(N)NC(=O)c1nc(Cl)c(N)nc1N` [Amiloride, reference compound], the “inhibitory ratio on INa—Ca at −80 mV” value in experiment [1] (10 μM) is 6%; in experiment [1] (30 μM), 15%; in experiment [1] (100 μM), 23%. In addition, the “inhibitory ratio on INa—Ca at +50 mV” value in experiment [1] (10 μM) is reported as 15%; in experiment [1] (30 μM), 23%; in experiment [1] (100 μM), 41%. For the same compound, the “effective concentration (significant inhibitory effect on reverse mode Na^+/Ca^2+ exchange)” value in experiment [1] was “above 10^−5 mol·L^−1”.
As for `COc1ccc(CCN(C)CCCC(C#N)(c2ccc(OC)c(OC)c2)C(C)C)cc1OC` (stereo not drawn) [Verapamil, reference compound], in experiment [3] (setting [6]), the “incidence of VT, VF, VE and duration of arrhythmic” value is on record as “all reduced”; the “latency of ventricular arrhythmic” value is reported as “significantly prolonged”.
With `O=c1c2ccc(Cl)cc2[se]n1-c1ccccn1` [IMM-142, 6-chloro-2-(2-pyridyl)-1,2-benz-isoselenazol-3(2H)-one], in experiment [1] (setting [4]), the “Inhibitory rate of inward INa—Ca (%)” value is recorded as 57% and the “Inhibitory rate of outward INa—Ca (%)” value was determined as 46%.
Consider `O=c1c2ccccc2[se]n1-c1cccc2cccnc12` [IMM-003, 2-(8-quinolinyl)-1,2-benz-isoselenazol-3(2H)-one], for which, in experiment [1] (setting [4]), the “Inhibitory rate of outward INa—Ca (%)” value is 22%.
On to `O=c1c2ccccc2[se]n1-c1ccncc1` [IMM-001, 2-(4-pyridyl)-1,2-benzisoselenazol-3(2H)-one], for which the “inhibitory ratio on INa—Ca at −80 mV” value amounted to 15% in experiment [1] (0.1 μM), 24% in experiment [1] (1 μM) and 42% in experiment [1] (10 μM). The “inhibitory ratio on INa—Ca at +50 mV” value was 28% in experiment [1] (0.1 μM), 48% in experiment [1] (1 μM) and 66% in experiment [1] (10 μM). For the same compound, the “selectivity of inhibition of outward versus inward INa—Ca” value in experiment [1] is reported as “high selectivity”. Besides, the “effective concentration (significant inhibitory effect on reverse mode Na^+/Ca^2+ exchange)” value in experiment [1] is given as 10^−7 to 10^−5 mol·L^−1. In experiment [3] (3 mg/Kg intravenous (femoral vein)), the “incidence and duration of VT, VF, VE / ventricular arrhythmic” value is reported as “all reduced”.
On to `N=C(N)SCCc1ccc(OCc2ccc([N+](=O)[O-])cc2)cc1` [KB-R7943, 2-[2-[4-(4-nitrobenzyloxy)phenyl]]isothiourea, reference compound], for which the “inhibitory ratio on INa—Ca at −80 mV” value in experiment [1] (1 μM) was 22%; in experiment [1] (10 μM) it was 57%. The “inhibitory ratio on INa—Ca at +50 mV” value amounted to 29% in experiment [1] (1 μM) and 61% in experiment [1] (10 μM). Moreover, the “selectivity of inhibition of outward versus inward INa—Ca” value in experiment [1] is given as “without selectivity”; in experiment [1] (listed as KB-R794) it was “poor selectivity”.
Consider `O=c1c2cc(F)ccc2[se]n1-c1ccccc1` [IMM-130, 5-fluoro-2-phenyl-1,2-benz-isoselenazol-3(2H)-one], for which, in experiment [1] (setting [4]), the “Inhibitory rate of inward INa—Ca (%)” value came out at 43% and the “Inhibitory rate of outward INa—Ca (%)” value was 30%.
In the same order, the values of `O=c1c2ccccc2[se]n1Cc1ccco1` [IMM-059, 2-(2-furanylmethyl)-1,2-benz-isoselenazol-3(2H)-one] are 15% and 8%.
